# Marks after values point to notes of the source that are not given here.
# Tested on: Sphaerotheca fuliginea
# Test: Example E: in vivo preventive test on Sphaerotheca fuliginea (powdery mildew on cucurbits)
# Settings: 500 ppm of active ingredient; gherkin plants, preventive spray; evaluated 15 days after inoculation
# Protocol: (§1) The young plants of gherkin are treated by spraying the active ingredient prepared as described above. Control plants are treated only with an aqueous solution of acetone/Dimethyl sulfoxide/Tween®. After 24 hours, the plants are contaminated by spraying the leaves with an aqueous suspension of Sphaerotheca fuliginea spores.
row,Structure (SMILES),Eff. % [%]
1,OC(Cc1cc(F)ncc1Cl)(Cn1cncn1)C1(F)CC1 (racemic) [Example I-65],100
2,"OC(Cc1ccncc1Cl)(Cn1cncn1)C1(Cl)CC1 (centres unmarked) [Example I-5, 2-(1-chlorocyclopropyl)-1-(3-chloropyridin-4-yl)-3-(1H-1,2,4-triazol-1-yl)propan-2-ol]",100

# Tested on: Venturia inaequalis
# Test: Example O: Venturia test (apples)/preventive
# Assay type: in vivo
# Settings: 100 ppm of active ingredient, preventive, evaluated 10 days after inoculation
# Protocol: (§2) Solvent: 24.5 parts by weight of acetone • 24.5 parts by weight of dimethylacetamide Emulsifier: 1 part by weight of alkylaryl polyglycol ether To produce a suitable preparation of active compound, 1 part by weight of active compound is mixed with the stated amounts of solvent and emulsifier, and the concentrate is diluted with water to the desired concentration. To test for preventive activity, young plants are sprayed with the preparation of active compound at the stated rate of application.
row,Structure (SMILES),Eff. % [%]
1,OC(Cc1cc(F)ncc1Cl)(Cn1cncn1)C1(F)CC1 (racemic) [Example I-65],100
2,"OC(Cc1ccncc1Cl)(Cn1cncn1)C1(Cl)CC1 (centres unmarked) [Example I-5, 2-(1-chlorocyclopropyl)-1-(3-chloropyridin-4-yl)-3-(1H-1,2,4-triazol-1-yl)propan-2-ol]",100

# Tested on: Septoria tritici
# Test: Example D: in vivo preventive test on Septoria tritici (leaf spot on wheat)
# Settings: 500 ppm of active ingredient; wheat plants, preventive spray; evaluated 24 days after inoculation
# Protocol: as §1, with “wheat” for “gherkin”, “Septoria tritici” for “Sphaerotheca fuliginea”
row,Structure (SMILES),Eff. % [%]
1,OC(Cc1cc(F)ncc1Cl)(Cn1cncn1)C1(F)CC1 (racemic) [Example I-65],100
2,"OC(Cc1ccncc1Cl)(Cn1cncn1)C1(Cl)CC1 (centres unmarked) [Example I-5, 2-(1-chlorocyclopropyl)-1-(3-chloropyridin-4-yl)-3-(1H-1,2,4-triazol-1-yl)propan-2-ol]",100

# Tested on: Fusarium nivale (var. majus)
# Test: Example J: Fusarium nivale (var. majus)-test (wheat)/preventive
# Assay type: in vivo
# Settings: 500 ppm of active ingredient, preventive, evaluated 5 days after inoculation
# Outline: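 Young wheat plants sprayed preventively with active compound (DMA/emulsifier concentrate diluted in water) at the stated rate, then sandblast-wounded and inoculated with conidia. Held in greenhouse at ~10 °C, ~100% RH. Efficacy scored 5 days post-inoculation: 0% = untreated control, 100% = no disease.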
row,Structure (SMILES),Eff. % [%]
1,OC(Cc1cc(F)ncc1Cl)(Cn1cncn1)C1(F)CC1 (racemic) [Example I-65],100
2,"OC(Cc1ccncc1Cl)(Cn1cncn1)C1(Cl)CC1 (centres unmarked) [Example I-5, 2-(1-chlorocyclopropyl)-1-(3-chloropyridin-4-yl)-3-(1H-1,2,4-triazol-1-yl)propan-2-ol]",100

# Tested on: Fusarium culmorum
# Test: Example H: Fusarium culmorum-test (wheat)/curative
# Assay type: in vivo
# Settings: 500 ppm of active ingredient, curative, evaluated 5 days after inoculation
# Protocol: Solvent: 49 parts by weight of N,N-dimethylacetamide
# Emulsifier: 1 part by weight of alkylaryl polyglycol ether
# To produce a suitable preparation of active compound, 1 part by weight of active compound or active compound combination is mixed with the stated amounts of solvent and emulsifier, and the concentrate is diluted with water to the desired concentration.
# To test for curative activity, young plants are slightly injured by using a sandblast and afterwards they are sprayed with a conidia suspension of Fusarium culmorum and placed for 24 hours in a greenhouse under a translucent incubation cabinet at a temperature of approximately 22° C. and a relative atmospheric humidity of approximately 100% and are subsequently sprayed with the preparation of active compound at the stated rate of application.
# After the spray coating has been dried, the plants remain in the greenhouse under translucent incubation cloches at a temperature of approximately 22° C. and a relative atmospheric humidity of approximately 100%.
# The test is evaluated 5 days after the inoculation. 0% means an efficacy which corresponds to that of the untreated control, while an efficacy of 100% means that no disease is observed.
row,Structure (SMILES),Eff. % [%]
1,OC(Cc1cc(F)ncc1Cl)(Cn1cncn1)C1(F)CC1 (racemic) [Example I-65],100
2,"OC(Cc1ccncc1Cl)(Cn1cncn1)C1(Cl)CC1 (centres unmarked) [Example I-5, 2-(1-chlorocyclopropyl)-1-(3-chloropyridin-4-yl)-3-(1H-1,2,4-triazol-1-yl)propan-2-ol]",100

# Tested on: Pyricularia oryzae
# Test: not given
# Assay type: in vivo
# Settings: 500 ppm of active ingredient; rice, preventive; evaluated 8 days after inoculation
row,Structure (SMILES),Eff. % [%]
1,OC(Cc1cc(F)ncc1Cl)(Cn1cncn1)C1(F)CC1 (racemic) [Example I-65],86
2,"OC(Cc1ccncc1Cl)(Cn1cncn1)C1(Cl)CC1 (centres unmarked) [Example I-5, 2-(1-chlorocyclopropyl)-1-(3-chloropyridin-4-yl)-3-(1H-1,2,4-triazol-1-yl)propan-2-ol]",75

# Tested on: Botrytis cinerea
# Test: Example A: in vivo preventive test on Botrytis cinerea (grey mould)
# Settings: 500 ppm of active ingredient; gherkin plants, preventive spray; evaluated 4 to 5 days after inoculation
# Protocol: as §1, with “Botrytis cinerea” for “Sphaerotheca fuliginea”
row,Structure (SMILES),Eff. % [%]
1,OC(Cc1cc(F)ncc1Cl)(Cn1cncn1)C1(F)CC1 (racemic) [Example I-65],100
2,"OC(Cc1ccncc1Cl)(Cn1cncn1)C1(Cl)CC1 (centres unmarked) [Example I-5, 2-(1-chlorocyclopropyl)-1-(3-chloropyridin-4-yl)-3-(1H-1,2,4-triazol-1-yl)propan-2-ol]",100

# Tested on: Uromyces appendiculatus
# Test: Example F: in vivo preventive test on Uromyces appendiculatus (bean rust)
# Settings: 500 ppm of active ingredient; bean plants, preventive spray; evaluated 11 days after inoculation
# Protocol: as §1, with “bean” for “gherkin”, “Uromyces appendiculatus” for “Sphaerotheca fuliginea”
row,Structure (SMILES),Eff. % [%]
1,OC(Cc1cc(F)ncc1Cl)(Cn1cncn1)C1(F)CC1 (racemic) [Example I-65],100
2,"OC(Cc1ccncc1Cl)(Cn1cncn1)C1(Cl)CC1 (centres unmarked) [Example I-5, 2-(1-chlorocyclopropyl)-1-(3-chloropyridin-4-yl)-3-(1H-1,2,4-triazol-1-yl)propan-2-ol]",98

# Tested on: not given
# Test: not given
# Settings: pH 2.7
row,Structure (SMILES),LogP
1,OC(Cc1cc(F)ncc1Cl)(Cn1cncn1)C1(F)CC1 (racemic) [Example I-65],1.77^[a]

# Tested on: Puccinia recondita
# Test: Example B: in vivo preventive test on Puccinia recondita (brown rust on wheat)
# Settings: 500 ppm of active ingredient; wheat plants, preventive spray; evaluated 11 days after inoculation
# Protocol: as §1, with “wheat” for “gherkin”, “Puccinia recondita” for “Sphaerotheca fuliginea”
row,Structure (SMILES),Eff. % [%]
1,OC(Cc1cc(F)ncc1Cl)(Cn1cncn1)C1(F)CC1 (racemic) [Example I-65],98
2,"OC(Cc1ccncc1Cl)(Cn1cncn1)C1(Cl)CC1 (centres unmarked) [Example I-5, 2-(1-chlorocyclopropyl)-1-(3-chloropyridin-4-yl)-3-(1H-1,2,4-triazol-1-yl)propan-2-ol]",100

# Tested on: Fusarium graminearum
# Test: not given
# Assay type: in vivo
# Settings: 500 ppm of active ingredient; barley, preventive; evaluated 5 days after inoculation
row,Structure (SMILES),Eff. % [%]
1,OC(Cc1cc(F)ncc1Cl)(Cn1cncn1)C1(F)CC1 (racemic) [Example I-65],100
2,"OC(Cc1ccncc1Cl)(Cn1cncn1)C1(Cl)CC1 (centres unmarked) [Example I-5, 2-(1-chlorocyclopropyl)-1-(3-chloropyridin-4-yl)-3-(1H-1,2,4-triazol-1-yl)propan-2-ol]",100

# Tested on: Podosphaera leucotricha
# Test: Example M: Podosphaera test (apples)/preventive
# Assay type: in vivo
# Settings: 100 ppm of active ingredient, preventive, evaluated 10 days after inoculation
# Protocol: as §2, with “application. After the spray coating has dried on, the plants are inoculated with an aqueous spore suspension of the causal agent of apple mildew (Podosphaera leucotricha).” for “application.”
row,Structure (SMILES),Eff. % [%]
1,"OC(Cc1ccncc1Cl)(Cn1cncn1)C1(Cl)CC1 (centres unmarked) [Example I-5, 2-(1-chlorocyclopropyl)-1-(3-chloropyridin-4-yl)-3-(1H-1,2,4-triazol-1-yl)propan-2-ol]",100

# Tested on: Pyrenophora teres
# Test: Example C: in vivo preventive test on Pyrenophora teres (net blotch on barley)
# Settings: 500 ppm of active ingredient; barley plants, preventive spray; evaluated 14 days after inoculation
# Protocol: as §1, with “barley” for “gherkin”, “Pyrenophora teres” for “Sphaerotheca fuliginea”
row,Structure (SMILES),Eff. % [%]
1,OC(Cc1cc(F)ncc1Cl)(Cn1cncn1)C1(F)CC1 (racemic) [Example I-65],100

# Tested on: Phakopsora pachyrhizi
# Test: Example L: Phakopsora test (soybeans)/preventive
# Assay type: in vivo
# Settings: 100 ppm of active ingredient, preventive, evaluated 7 days after inoculation
row,Structure (SMILES),Eff. % [%]
1,OC(Cc1cc(F)ncc1Cl)(Cn1cncn1)C1(F)CC1 (racemic) [Example I-65],100
2,"OC(Cc1ccncc1Cl)(Cn1cncn1)C1(Cl)CC1 (centres unmarked) [Example I-5, 2-(1-chlorocyclopropyl)-1-(3-chloropyridin-4-yl)-3-(1H-1,2,4-triazol-1-yl)propan-2-ol]",100

# Tested on: Leptosphaeria nodorum
# Test: Example K: Leptosphaeria nodorum test (wheat)/preventive
# Assay type: in vivo
# Settings: 500 ppm of active ingredient, preventive, evaluated 8 days after inoculation
# Protocol: Solvent: 49 parts by weight of N,N-dimethylacetamide Emulsifier: 1 part by weight of alkylaryl polyglycol ether To produce a suitable preparation of active compound, 1 part by weight of active compound or active compound combination is mixed with the stated amounts of solvent and emulsifier, and the concentrate is diluted with water to the desired concentration. To test for preventive activity, young plants are sprayed with the preparation of active compound or active compound combination at the stated rate of application. After the spray coating has been dried, the plants are sprayed with a spore suspension of Leptosphaeria nodorum.
row,Structure (SMILES),Eff. % [%]
1,OC(Cc1cc(F)ncc1Cl)(Cn1cncn1)C1(F)CC1 (racemic) [Example I-65],100
2,"OC(Cc1ccncc1Cl)(Cn1cncn1)C1(Cl)CC1 (centres unmarked) [Example I-5, 2-(1-chlorocyclopropyl)-1-(3-chloropyridin-4-yl)-3-(1H-1,2,4-triazol-1-yl)propan-2-ol]",90

# Tested on: Blumeria graminis f. sp. hordei
# Test: Example G: Blumeria test (barley)/preventive
# Assay type: in vivo
# Settings: 500 ppm of active ingredient, preventive, evaluated 7 days after inoculation
# Outline: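 Active compound formulated in N,N-dimethylacetamide with alkylaryl polyglycol ether emulsifier, diluted in water, and sprayed onto young barley plants at the stated application rate. Once the coating dried, plants were dusted with Blumeria graminis f. sp. hordei spores as a preventive test.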
row,Structure (SMILES),Eff. % [%]
1,OC(Cc1cc(F)ncc1Cl)(Cn1cncn1)C1(F)CC1 (racemic) [Example I-65],100
2,"OC(Cc1ccncc1Cl)(Cn1cncn1)C1(Cl)CC1 (centres unmarked) [Example I-5, 2-(1-chlorocyclopropyl)-1-(3-chloropyridin-4-yl)-3-(1H-1,2,4-triazol-1-yl)propan-2-ol]",100
